1 compound from patent US10300052B2, “Methods for increasing CFTR activity” (THE UAB RESEARCH FOUNDATION, priority 2012, dated 2019) can be followed below.

Assay [1] deals with T1, CFTR (Homo sapiens, UniProt P13569).
T1 construct: from tissue; host or cells: normal human trachea/bronchus from donor explant organs
The assay can be described thus: Isc under voltage clamp in normal explanted human trachea. The conditions noted are these: ivacaftor 10 μM after amiloride 100 μM and forskolin 100 nM, voltage clamp (FIGS. 3A, 3B). The protocol:
Serial addition of amiloride (100 μM), forskolin (100 nM), and ivacaftor (VX-770; 10 μM) or vehicle control is shown, followed by addition of ATP (10 μM), and CFTR Inh-172 (10 μM×2) as control additions.
The change in Isc following addition of ivacaftor (VX-770) or vehicle control is shown. *P<0.05, n=19, 24 samples/condition.
Ivacaftor also potentiated CFTR-dependent current in normal explanted human trachea examined under voltage clamp conditions (FIGS. 3A and B).
Samples of human trachea tissue were obtained from normal donor explant organs not selected for lung transplantation. Lung, mainstem bronchi, and trachea were resected en-bloc, transferred on wet ice, and large airways excised. Airway tissues were then immersed in ice cold DMEM following resection for transfer, then allowed to equilibrate to room temperature prior to mOCT imaging.
Short-circuit current (Isc) was measured under voltage clamp conditions using MC8 voltage clamps and P2300 Ussing chambers (Physiologic Instruments, San Diego, Calif.) as previously described (2). Monolayers were initially bathed on both sides with identical Ringer's solutions containing (in mM) 115 NaCl, 25 NaHCO3, 2.4 KH2PO4, 1.24 K2HPO4, 1.2 CaCl2, 1.2 MgC2, 10 D-glucose (pH 7.4). […] A one-second three-mV pulse was imposed every 10 seconds to monitor resistance calculated using Ohm's law. […]

Assay [2] concerns porcine trachea CFTR−/−. The assay can be described thus: μOCT imaging of airway epithelial function in porcine trachea, CFTR-/- animals. The following applies: sequential ivacaftor 10 μM, forskolin 100 nM, acetylcholine 100 μM in bath, 37° C. (FIG. 7G). From the text: (§1) FIGS. 7A-7H show the effects of CFTR activators on airway epithelial function in intact porcine trachea by μOCT. FIGS. 7A-7B show representative μOCT images for a CFTR−/− (FIG. 7A) and CFTR+/+ (FIG. 7B) animal. FIGS. 7C-7F, respectively, show ASL depth (FIG. 7C), PCL depth (FIG. 7D), CBF (FIG. 7E) and MCT (FIG. 7F) measurements derived from μOCT images from CFTR−/− and CFTR+/+ animals. FIGS. 7G and 7H show the response of epithelial functional parameters, namely ASL depth and MCT in CFTR−/− (FIG. 7G) and CFTR+/+(FIG. 7H) animals in response to sequential pharmacologic intervention by ivacaftor (10 μM), forskolin (100 nM) and acetylcholine (100 μM).
(§2) To further investigate the role of CFTR activators in modulating airway epithelial cell function, CFTR activators were studied in combination with porcine trachea. In this example, porcine trachea from animals having a mutated CFTR (CFTR (−/−) and from animals having a WT-CFTR (CFTR+/+) were evaluated for ASL depth, PCL depth, CBF and MCT. The results are shown in FIGS. 7A-7H.
(§3) FIGS. 7G and 7H show the response of epithelial functional parameters, namely ASL depth, CBF and MCT in CFTR−/− and CFTR+/+ animals in response to sequential pharmacologic intervention by ivacaftor (10 μM), forskolin (100 nM) and acetylcholine (100 μM); in this experiment, acetylcholine served as a positive control to induce glandular extrusion in CF tissue). In these experiments, agonists were added to the bath solution and all experiments were conducted under physiological conditions (37° C. and 100% humidity). […] In contrast to FIG. 7G, ASL depth, CBF and MCT were all increased in response to ivacaftor treatment in CFTR+/+ animals, consistent with the results described above for human tissue.
Normal piglet tracheas were obtained from Exemplar Genetics (Sioux Center, Iowa). Tissue were dissected from one-day-old piglets and shipped on wet ice in DMEM. A modified protocol based on airway tissue handling and preparation methods developed by Ballard et al. (Am J Physiol Lung Cell Mol Physiol 298: L270-276, 2010) was employed. Tracheas were immersed in 80 mL Ringer bicarbonate solution (KRB) baths at room temperature and slowly warmed to 37° C. After four hours of pretreatment, the tracheas were removed from the KRB. Accessible mucus and liquid were aspirated from the airway lumens and the tracheal ends were cannulated so that the serosal surface was bathed in KRB [29] without contacting the mucosal surface, as previously described (Ballard et al., Am J Physiol Lung Cell Mol Physiol 298: L270-276, 2010; Martens, et al., Am J Physiol Lung Cell Mol Physiol 301: L236-246, 2011). Tracheas were allowed to equilibrate in KRB bubbled with 95% 02 and 5% CO2 at 37° C. and the luminal side exposed to conditioned air at 100% humidity for 2 hours prior to mOCT imaging (Sleigh et al., Comp Biochem Physiol A Comp Physiol 94: 359-364, 1989).
The μOCT system is a spectral-domain OCT implementation with several improvements to standard OCT that yield high resolution in both lateral and axial directions. The general layout and axial resolution characterization have been described (Liu et al., PLOSOne, 8(1), E54473-2013). A super-continuum source (Fianium SC450) provides the high-bandwidth, short coherence length light necessary for high axial resolution ([…]). A typical OCT system includes an interferometer with the reference and sample arms intersecting at a beamsplitter. The beamsplitter is replaced in μOCT with a 45 degree rod mirror, which apodizes the sample beam by introducing a circular obscuration in the center to achieve a balance of good lateral resolution (2 μm) and long depth of focus (0.2 mm). Custom software is employed to control the galvanometer scanning motors while acquiring spectral data from the line camera. […]

In assay [3] the test system is porcine trachea CFTR+/+. The assay can be described thus: μOCT imaging of airway epithelial function in porcine trachea, CFTR+/+ animals. The following applies: ivacaftor 10 μM in bath, 37° C. (FIG. 7H).
From the text: as §1, §2, §3
Normal piglet tracheas were obtained from Exemplar Genetics (Sioux Center, Iowa). Tissue were dissected from one-day-old piglets and shipped on wet ice in DMEM. A modified protocol based on airway tissue handling and preparation methods developed by Ballard et al. (Am J Physiol Lung Cell Mol Physiol 298: L270-276, 2010) was employed. […]

T1 sequence (P13569 whole entry): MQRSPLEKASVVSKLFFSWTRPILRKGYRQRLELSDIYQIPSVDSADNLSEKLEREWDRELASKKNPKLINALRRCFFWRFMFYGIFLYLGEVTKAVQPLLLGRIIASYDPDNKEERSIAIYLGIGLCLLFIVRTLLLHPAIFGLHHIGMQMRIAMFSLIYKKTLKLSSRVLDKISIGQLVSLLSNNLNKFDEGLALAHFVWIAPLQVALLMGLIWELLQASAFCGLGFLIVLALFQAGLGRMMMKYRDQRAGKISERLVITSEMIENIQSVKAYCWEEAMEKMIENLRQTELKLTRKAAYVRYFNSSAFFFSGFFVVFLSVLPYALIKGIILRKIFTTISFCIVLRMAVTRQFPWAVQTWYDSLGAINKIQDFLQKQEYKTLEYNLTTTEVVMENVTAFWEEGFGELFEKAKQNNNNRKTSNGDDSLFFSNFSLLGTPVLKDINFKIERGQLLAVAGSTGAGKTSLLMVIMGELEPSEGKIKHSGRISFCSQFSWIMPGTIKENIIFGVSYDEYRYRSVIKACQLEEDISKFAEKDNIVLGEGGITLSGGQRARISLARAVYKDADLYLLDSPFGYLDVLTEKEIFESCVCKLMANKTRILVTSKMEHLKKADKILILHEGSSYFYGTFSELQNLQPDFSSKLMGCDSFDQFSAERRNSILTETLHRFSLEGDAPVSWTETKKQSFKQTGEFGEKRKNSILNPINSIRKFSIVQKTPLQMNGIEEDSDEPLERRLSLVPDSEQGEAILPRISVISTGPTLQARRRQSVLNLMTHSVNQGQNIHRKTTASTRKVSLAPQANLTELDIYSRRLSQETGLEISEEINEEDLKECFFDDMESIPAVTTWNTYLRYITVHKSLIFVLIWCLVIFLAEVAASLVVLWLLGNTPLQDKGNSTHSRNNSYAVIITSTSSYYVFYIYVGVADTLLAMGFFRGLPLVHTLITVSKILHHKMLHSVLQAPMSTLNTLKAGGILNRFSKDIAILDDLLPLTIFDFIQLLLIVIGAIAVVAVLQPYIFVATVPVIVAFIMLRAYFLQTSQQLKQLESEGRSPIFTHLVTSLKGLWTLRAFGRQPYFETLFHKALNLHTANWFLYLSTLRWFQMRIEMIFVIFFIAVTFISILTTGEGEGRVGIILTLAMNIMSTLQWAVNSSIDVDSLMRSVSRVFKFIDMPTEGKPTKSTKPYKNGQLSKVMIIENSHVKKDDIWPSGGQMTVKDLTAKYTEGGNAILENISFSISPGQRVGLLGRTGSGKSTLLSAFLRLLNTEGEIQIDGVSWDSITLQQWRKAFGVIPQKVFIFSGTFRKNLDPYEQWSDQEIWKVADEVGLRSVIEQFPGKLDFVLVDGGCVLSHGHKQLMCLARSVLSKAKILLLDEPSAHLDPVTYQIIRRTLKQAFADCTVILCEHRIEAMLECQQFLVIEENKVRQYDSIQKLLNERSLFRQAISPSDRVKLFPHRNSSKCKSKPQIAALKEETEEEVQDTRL

As for `CC(C)(C)c1cc(C(C)(C)C)c(NC(=O)c2c[nH]c3ccccc3c2=O)cc1O` [ivacaftor], the CFTR-dependent current result in assay [1] is listed as “potentiated”. For the same compound, in assay [2], the ASL depth response result is recorded as “no response”, the CBF response result is recorded as “no response” and the MCT response result was “no response”. In addition, in assay [3], the ASL depth response result is listed as “increased”, the CBF response entry is “increased” and the MCT response entry was “increased”.
